Reference: PubChem BioAssay (NCI)
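Where inhibition never reached the appropriate level, the endpoint shown equals the highest concentration tested. Otherwise, values were interpolated linearly from a five-concentration, 48-hour dose response in 96-well plates. Abbreviation: GI50, concentration required for 50% inhibition of growth. TGI is the concentration that stops growth completely.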

Assays:
Assay in all cases: NCI tumour cell line growth inhibition, 48 h
CCRF-CEM leukemia = tested on: CCRF-CEM leukemia
MOLT-4 leukemia = tested on: MOLT-4 leukemia
U251 CNS = tested on: U251 CNS
786-0 renal = tested on: 786-0 renal
HOP-62 NSCLC = tested on: HOP-62 NSCLC
HL-60(TB) leukemia = tested on: HL-60(TB) leukemia
A498 renal = tested on: A498 renal
DU-145 prostate = tested on: DU-145 prostate
T-47D breast = tested on: T-47D breast
SR leukemia = tested on: SR leukemia
SK-MEL-28 melanoma = tested on: SK-MEL-28 melanoma
M14 melanoma = tested on: M14 melanoma
ACHN renal = tested on: ACHN renal
NCI-H226 lung = tested on: NCI-H226 lung
MCF7 breast = tested on: MCF7 breast
BT-549 breast = tested on: BT-549 breast
HOP-92 NSCLC = tested on: HOP-92 NSCLC
HCC-2998 colon = tested on: HCC-2998 colon
SK-MEL-2 melanoma = tested on: SK-MEL-2 melanoma
COLO 205 colon = tested on: COLO 205 colon
UACC-257 melanoma = tested on: UACC-257 melanoma
RPMI-8226 leukemia = tested on: RPMI-8226 leukemia
SW-620 colon = tested on: SW-620 colon
HT29 colon = tested on: HT29 colon
OVCAR-4 ovarian = tested on: OVCAR-4 ovarian
NCI-H460 lung = tested on: NCI-H460 lung
NCI-H522 lung = tested on: NCI-H522 lung
SK-MEL-5 melanoma = tested on: SK-MEL-5 melanoma
SF-295 CNS = tested on: SF-295 CNS
UACC-62 melanoma = tested on: UACC-62 melanoma
K-562 leukemia = tested on: K-562 leukemia
SN12C renal = tested on: SN12C renal
EKVX NSCLC = tested on: EKVX NSCLC
MALME-3M melanoma = tested on: MALME-3M melanoma
HCT-116 colon = tested on: HCT-116 colon
HCT-15 colon = tested on: HCT-15 colon
TK-10 renal = tested on: TK-10 renal
IGROV1 ovarian = tested on: IGROV1 ovarian
OVCAR-8 ovarian = tested on: OVCAR-8 ovarian
SNB-75 CNS = tested on: SNB-75 CNS
MDA-MB-435 = tested on: MDA-MB-435
HS 578T breast = tested on: HS 578T breast
PC-3 prostate = tested on: PC-3 prostate
CAKI-1 renal = tested on: CAKI-1 renal
UO-31 renal = tested on: UO-31 renal
SF-539 CNS = tested on: SF-539 CNS
A549 NSCLC = tested on: A549 NSCLC
MDA-MB-231 breast = tested on: MDA-MB-231 breast
OVCAR-5 ovarian = tested on: OVCAR-5 ovarian
SK-OV-3 ovarian = tested on: SK-OV-3 ovarian
SNB-19 CNS = tested on: SNB-19 CNS
NCI/ADR-RES ovarian = tested on: NCI/ADR-RES ovarian
NCI-H23 lung = tested on: NCI-H23 lung
SF-268 CNS = tested on: SF-268 CNS

COc1ccc2nc(-c3ccccc3)cc(Nc3cccc(/C(C)=N\O)c3)c2c1
GI50 (CCRF-CEM leukemia): 58.7 µM | TGI (CCRF-CEM leukemia): > 100 µM | GI50 (MOLT-4 leukemia): 6.18 µM | TGI (MOLT-4 leukemia): > 100 µM | GI50 (U251 CNS): 6.05 µM | TGI (U251 CNS): 48.5 µM | GI50 (786-0 renal): 2.09 µM | TGI (786-0 renal): 5.15 µM | GI50 (HOP-62 NSCLC): 1.84 µM | TGI (HOP-62 NSCLC): 4.27 µM | GI50 (HL-60(TB) leukemia): > 100 µM | TGI (HL-60(TB) leukemia): > 100 µM | GI50 (A498 renal): 11.8 µM | TGI (A498 renal): 37.3 µM | GI50 (DU-145 prostate): 6.46 µM | TGI (DU-145 prostate): 31.9 µM | GI50 (T-47D breast): 4.01 µM | TGI (T-47D breast): > 100 µM | GI50 (SR leukemia): 3.36 µM | TGI (SR leukemia): > 100 µM | GI50 (SK-MEL-28 melanoma): 57.7 µM | TGI (SK-MEL-28 melanoma): > 100 µM | GI50 (M14 melanoma): 5.04 µM | TGI (M14 melanoma): > 100 µM | GI50 (ACHN renal): 7.29 µM | TGI (ACHN renal): > 100 µM | GI50 (NCI-H226 lung): 3.18 µM | TGI (NCI-H226 lung): 11.1 µM | GI50 (MCF7 breast): 16.8 µM | TGI (MCF7 breast): > 100 µM | GI50 (BT-549 breast): 32.8 µM | TGI (BT-549 breast): > 100 µM | GI50 (HOP-92 NSCLC): 1.93 µM | TGI (HOP-92 NSCLC): 5.66 µM | GI50 (HCC-2998 colon): 46.2 µM | TGI (HCC-2998 colon): > 100 µM | GI50 (SK-MEL-2 melanoma): 55.7 µM | TGI (SK-MEL-2 melanoma): > 100 µM | GI50 (COLO 205 colon): 21.4 µM | TGI (COLO 205 colon): > 100 µM | GI50 (UACC-257 melanoma): 19.4 µM | TGI (UACC-257 melanoma): > 100 µM | GI50 (RPMI-8226 leukemia): 4.89 µM | TGI (RPMI-8226 leukemia): > 100 µM | GI50 (SW-620 colon): 19.4 µM | TGI (SW-620 colon): > 100 µM | GI50 (HT29 colon): 28.2 µM | TGI (HT29 colon): > 100 µM | GI50 (OVCAR-4 ovarian): 5.65 µM | TGI (OVCAR-4 ovarian): > 100 µM | GI50 (NCI-H460 lung): 6.84 µM | TGI (NCI-H460 lung): > 100 µM | GI50 (NCI-H522 lung): 73.9 µM | TGI (NCI-H522 lung): > 100 µM | GI50 (SK-MEL-5 melanoma): 13.2 µM | TGI (SK-MEL-5 melanoma): 41 µM | GI50 (SF-295 CNS): 2.05 µM | TGI (SF-295 CNS): 5.13 µM | GI50 (UACC-62 melanoma): 5.42 µM | TGI (UACC-62 melanoma): 30.5 µM | GI50 (K-562 leukemia): 4.12 µM | TGI (K-562 leukemia): > 100 µM | GI50 (SN12C renal): 6.05 µM | TGI (SN12C renal): 35.4 µM | GI50 (EKVX NSCLC): 19.2 µM | TGI (EKVX NSCLC): 86.9 µM | GI50 (MALME-3M melanoma): 4.29 µM | TGI (MALME-3M melanoma): 20.2 µM | GI50 (HCT-116 colon): 2.58 µM | TGI (HCT-116 colon): > 100 µM | GI50 (HCT-15 colon): 29.8 µM | TGI (HCT-15 colon): > 100 µM | GI50 (TK-10 renal): 2.56 µM | TGI (TK-10 renal): 9.69 µM | GI50 (IGROV1 ovarian): 24.4 µM | TGI (IGROV1 ovarian): > 100 µM | GI50 (OVCAR-8 ovarian): 3 µM | TGI (OVCAR-8 ovarian): > 100 µM | GI50 (SNB-75 CNS): 4.49 µM | TGI (SNB-75 CNS): > 100 µM | GI50 (MDA-MB-435): 2.5 µM | TGI (MDA-MB-435): 7.96 µM | GI50 (HS 578T breast): 9.05 µM | TGI (HS 578T breast): 79.2 µM | GI50 (PC-3 prostate): 4.72 µM | TGI (PC-3 prostate): 26.3 µM | GI50 (CAKI-1 renal): 3.23 µM | TGI (CAKI-1 renal): 12.9 µM | GI50 (UO-31 renal): 9.66 µM | TGI (UO-31 renal): > 100 µM | GI50 (SF-539 CNS): 6.61 µM | TGI (SF-539 CNS): 24.8 µM | GI50 (A549 NSCLC): 4.67 µM | TGI (A549 NSCLC): > 100 µM | GI50 (MDA-MB-231 breast): 2.54 µM | TGI (MDA-MB-231 breast): 7.62 µM | GI50 (OVCAR-5 ovarian): 33.7 µM | TGI (OVCAR-5 ovarian): > 100 µM | GI50 (SK-OV-3 ovarian): 6.65 µM | TGI (SK-OV-3 ovarian): 80.6 µM | GI50 (SNB-19 CNS): 32.9 µM | TGI (SNB-19 CNS): > 100 µM | GI50 (NCI/ADR-RES ovarian): 6.35 µM | TGI (NCI/ADR-RES ovarian): > 100 µM | GI50 (NCI-H23 lung): 22.4 µM | TGI (NCI-H23 lung): > 100 µM | GI50 (SF-268 CNS): 3.34 µM | TGI (SF-268 CNS): 9.06 µM
